Results as given in patent US10307406B2, “Methods and compositions for re-activating Epstein-Barr virus and screening compounds therefor” (The Wistar Institute of Anatomy and Biology, priority 2013, dated 2019).
Like-named read-outs stand apart in the source and are kept apart here.

What was measured:
[1] = system: Mutul-Hp-Luc cells; experiment: microbe, parasite or virus in culture; type: cell-based, Epstein-Barr Virus (EBV)
Description: BHLF1 promoter (Hp) or the BZ1F1 promoter (Zp) was cloned into pHEBO plasmid into Nhel and HindIII restriction sites of pHEBO-luc plasmid (Yates, 1985, Nature, 313:812-815; and Deng, 2001, J. Virol. 75:10334-10347). To create pHEBO-GFP, most of luciferase gene was excised by BsrGI and HindIII sites and replaced with EGFP excised from pEGFP-N1 (Clontech). Mutul cells were transfected with the new pHEBO-Zp-luc, pHEBO-Hp-luc (FIG. 8) or pHEBO-Hp-GFP constructs and transfected cells were selected with 400 μg/mL of Hygromycin. After 2 weeks of selection, stable hygromycin-resistant cells were seeded at 5000 per well in 384 well white plates and assayed as described below.
Columns 1, 2, 23, and 24 received DMSO (0.2% final concentration). The remaining 320 wells in columns 3-22 received test compounds at a final concentration of 10 μM cumulative concentration for the 5 compounds/2 μM individual compound concentration/0.2% final DMSO concentration. Cells were incubated with compounds for 48 h at 37° C./5% CO2. Twenty microliters of Steady-Glo® Luciferase Reagent (Promega) was added to assay plates and incubated for 15 minutes at room temperature. Plates were centrifuged and luminescence was measured on an EnVision® Excite multilabel microplate reader, using the ultrasensitive luminescence measurement technology (Perkin Elmer).
To confirm the activity of candidate compounds identified after deconvolution that exceeded the cutoff parameter, liquid stock from the screening library was retested as single compounds at a final concentration of 10 μM, using assay conditions identical to the primary high-throughput screen.
To eliminate confirmed actives that may interfere with the assay technology by inhibiting luciferase, the activity of the compounds were tested in a biochemical luciferase assay counterscreen (Auld, 2008, J. Med. Chem., 51:2372-2386). To quantitatively assess the activity and prioritize compounds for further follow-up, fresh liquid stocks prepared from powders were reformatted as a 10 point dilution series spanning at least 3-logs, starting at 10 μM, the initial screening concentration. Data for test compounds was normalized to DMSO and NaB (1 mM) plate controls to calculate fold stimulation and z-factor (σ is variance/standard deviations), μ is mean of positive (p) and negative (n) controls). Z-factor is a statistical measurement that assesses the quality of the assay and predicts if the assay can be useful in a high-throughput screening. Z factors above 0.5 are considered acceptable. The screen's Z-factor was above 0.
The relative EC50 for each compound, i.e., the concentration of compound that produced 50% of the maximum effect, was calculated using a […] non-linear regression analysis (GraphPad Prism® 6 software). Error bars represent SD for each concentration of a compound. To assist with decision making points, compound activities were stratified into 4 categories: […]

[2] = system: EBV positive BL cells; conditions: cited from earlier work
[3] = system: EBV positive Mutul cells; experiment: resazurin cytotoxicity assay with or without GCV
Description: Mutul-Hp-Luc were seeded at 0.2 million per mL and treated with Compound 4. Compound 4 was added again 48 h. Freshly made GCV was added on Day 2 for 4 days twice a day, in the morning and 8 h later. Cell viability was measured either with Resazurin 5 days after the first Compound 4 treatment, or the cells were stained with Trypan blue on Day 6. […] Live cells were counted by the Trypan Blue stain exclusion method. […] Different concentrations of Compound 4 combined with GCV (gray bars) or without GCV (black bars) were used. Cell viability was measured as a percentage of DMSO-treated control cells. 590 nm fluorescence values are proportionate to the cell viability. Cells tested include EBV-positive Mutul (FIG. 6C), Akata (FIG. 6D), DG75 (FIG. 6E), and Mutu-LCL352 (FIG. 6F). Daily viability assay for Mutul cells treated with either DMSO, NaB, compound 4 (0.5 μM) with or without GCV was measured.
Assay plates were prepared by seeding 25,000 Mutul cells in 50 μL of RPMI supplemented with 15% FBS in 384 well tissue culture plates (Nunc). […] Cells were incubated for 5 days at 37° C./5% CO2 and viability was monitored by the addition of 20 μL of 500 μM resazurin (Sigma) and incubation for 4 h at 37° C. Plates were centrifuged and fluorescence intensity was measured at 590 nm on an Envision® Xcite multilabel microplate reader (Perkin Elmer). […]

[4] = system: Mutul-Hp-Luc cells; type: cell-based, Epstein-Barr Virus (EBV)
[5] = system: histone H3 acetylation in Mutul and Mutu-LCL352 cells; experiment: immunoblot for acetylation of histone H3; type: cell-based; conditions: 48 h; 2 mM NaB or 1 μM compound
Description: (§1) FIGS. 7A-C are gels illustrating the mechanism of EBV reactivation of the compounds in distinct from HDAC inhibitors and TPA. FIG. 7A is Mutul cells treated with 2% DMSO, 2 mM NaB, 20 ng/mL TPA, or 1 μM compound for 48 h, immunoblotted, and probed for acetylation of histone H3 and β-actin. FIG. 7B is Mutu-LCL352 cells treated and probed as in described in FIG. 7A. FIG. 7C is Mutul cells treated with controls or compounds for 0.5 h, immunoblotted, and probed for phosphorylated forms of p90RSK, p53, p38MAPK, S6, total MAPK, and β-actin.
Mutul and Mutu-LCL352 cell lines were used to test whether the newly identified EBV activators function as […] by increasing acetylation on histone H3.

[6] = in vivo; cited from earlier work
[7] = system: latent EBV; conditions: cited from earlier work
[8] = system: Mutul cells; experiment: cell viability by trypan blue dye exclusion, with or without GCV; type: cell-based; conditions: 6 days, compounds at 1 μM
Description: Mutul-Hp-Luc were seeded at 0.2 million per mL and treated with Compound 4. Compound 4 was added again 48 h. Freshly made GCV was added on Day 2 for 4 days twice a day, in the morning and 8 h later. Cell viability was measured either with Resazurin 5 days after the first Compound 4 treatment, or the cells were stained with Trypan blue on Day 6. […] Live cells were counted by the Trypan Blue stain exclusion method. […] Different concentrations of Compound 4 combined with GCV (gray bars) or without GCV (black bars) were used. Cell viability was measured as a percentage of DMSO-treated control cells. 590 nm fluorescence values are proportionate to the cell viability. […] Daily viability assay for Mutul cells treated with either DMSO, NaB, compound 4 (0.5 μM) with or without GCV was measured.
It was tested whether combination of the newly identified activators and GCV would increase selective cell killing of EBV infected cells. […] Specifically, gangcyclovir (GCV) was combined with a sublethal dose of compounds (1 μM) to determine if it could induce cell death in Mutul cells after six days of treatment. Cell viability was measured by trypan blue dye exclusion.

[9] = system: p38 MAPK, S6, p90RSK and p53 phosphorylation in Mutul cells; experiment: immunoblot for phosphorylation of p38 MAPK, S6, p90RSK and p53; type: cell-based; conditions: 0.5 h
Description: as §1
Cells were incubated with DMSO, 2 mM sodium butyrate (NaB), […] 12-O-tetradecanoyl phorbol-13-acetate (TPA) or 1 μM of compounds for 72 h, washed in PBS once and lysed in 1×Laemmii buffer. Protein extract equivalent to 10^5 cells were loaded on 8-16% SDS-PAGE gels (Invitrogen) and transferred to nitrocellulose membranes (Millipore). Lytic reactivation was detected with a rabbit polyclonal anti-ZTA and mouse monoclonal anti-EA-D (Abcam) antibodies diluted in 5% evaporated milk and incubated with the membranes for 2 h at RT, or overnight at 4° C., followed by secondary anti-mouse or rabbit HRP-conjugated (Roche). Rabbit antibodies against phospho-p38 MAPK, -S6, -p90RSK and -p53 West Pico were mixed into a PathScan® cocktail (Cell Signaling). […]

[10] = human gammaherpesvirus 4, read-out: EC50 values
[11] = Mutul-Hp-Luc cells, up to 2 mM NaB

**Q.** With COc1ccc(C2c3[nH]c4ccc(Cl)cc4c3CCN2C(=O)c2ccc(Cl)cc2)cc1 (centres unmarked) [Compound 19] as the compound, how does the EC50 ([1]; human gammaherpesvirus 4, 48 h) read?
**A.** < 500 nM

**Q.** What does the source list for COc1ccc(C2c3[nH]c4ccc(Cl)cc4c3CCN2C(=O)c2cccc(OC)c2)cc1 (centres unmarked) [Compound 12]?
**A.** EC50 ([1]; human gammaherpesvirus 4, 48 h): < 500 nM; EC50 [1, 10]: 50 to 200 nM

**Q.** Which “activation of latent EBV” value [2] does the source give for CC(C)C[C@H](NC(=O)[C@H](Cc1ccccc1)NC(=O)c1cnccn1)B(O)O [bortezomib] here?
**A.** activator of latent EBV in a limited number of EBV positive BL cells

**Q.** With COc1ccc(C2c3[nH]c4ccc(Cl)cc4c3CCN2C(=O)c2ccccc2Cl)cc1 (centres unmarked) [Compound 14] as the compound, how does the EC50 ([1]; human gammaherpesvirus 4, 48 h) read?
**A.** > 500 nM

**Q.** Which EC50 ([1]; human gammaherpesvirus 4, 48 h) does the source give for COc1ccc(C2c3[nH]c4ccc(Cl)cc4c3CCN2C(=O)c2c(Cl)cccc2Cl)cc1 (centres unmarked) [Compound 15] here?
**A.** > 500 nM

**Q.** With COc1ccc(C(=O)N2CCc3c([nH]c4ccc(Cl)cc34)C2c2ccc(OC)cc2)cc1 (centres unmarked) [Compound 21] as the compound, how does the EC50 ([1]; human gammaherpesvirus 4, 48 h) read?
**A.** < 500 nM

**Q.** And the EC50 [1, 10]?
**A.** 50 to 200 nM

**Q.** With COc1ccc(C2NCCc3c2[nH]c2ccc(Cl)cc32)cc1 (centres unmarked) [Compound 11] as the compound, how does the EC50 ([1]; human gammaherpesvirus 4, 48 h) read?
**A.** < 500 nM

**Q.** For COc1ccc(C2c3c(c4cc(Cl)ccc4n3C(=O)c3ccc(F)cc3)CCN2C(=O)c2ccc(F)cc2)cc1 (centres unmarked) [Compound 22], which EC50 ([1]; human gammaherpesvirus 4, 48 h) is on record?
**A.** < 500 nM

**Q.** What about the EC50 [1, 10] of the same compound?
**A.** 50 to 200 nM

**Q.** Which “synergy with GCV on killing EBV-positive cells” value ([3]; Mutul cells, combination with 10 μg/mL GCV) does the source give for CCCC(=O)[O-].[Na+] [NaB, sodium butyrate] here?
**A.** did not synergize with GCV

**Q.** What about the toxicity to cells ([3]; with or without GCV, daily resazurin) of the same compound?
**A.** toxic to cells regardless of EBV positive status

**Q.** What about the “cell viability on longer exposure” value ([4]; 2 mM NaB, longer periods than 48 h) of the same compound?
**A.** loss of cell viability

**Q.** What about the cell toxicity [4, 11] of the same compound?
**A.** relatively low cell toxicity

**Q.** And the signal-to-background [4, 11]?
**A.** 20-40 fold

**Q.** And the “luciferase response to NaB” value ([4]; pHEBO-Hp-Luc in Mutul cells, 2 mM NaB vs DMSO)?
**A.** > 20 fold

**Q.** What about the “acetylation of histone H3” value [5] of the same compound?
**A.** caused histone acetylation in both cell lines

**Q.** And the pharmacokinetics [6]?
**A.** unsuitable pharmacokinetics

**Q.** What about the “concentrations required to trigger the latent to lytic switch” value [7] of the same compound?
**A.** millimolar concentrations

**Q.** For arginine butyrate, which “efficacy in clinical trial” value [6] is on record?
**A.** efficacious

**Q.** And the “tolerability in clinical trial” value [6]?
**A.** not tolerated due to toxicity

**Q.** And the “concentrations required to trigger the latent to lytic switch” value [7]?
**A.** millimolar concentrations

**Q.** Which EC50 ([1]; human gammaherpesvirus 4, 48 h) does the source give for COc1ccc(C2c3[nH]c4ccc(Cl)cc4c3CCN2S(=O)(=O)c2ccc(OC)cc2)cc1 (centres unmarked) [Compound 26] here?
**A.** > 500 nM

**Q.** With Nc1nc(O)c2ncn(COC(CO)CO)c2n1 [GCV, gancyclovir] as the compound, how does the “reduction of cell viability as single agent” value [8] read?
**A.** −10%

**Q.** With COc1ccc(C2c3[nH]c4ccc(Cl)cc4c3CCN2S(=O)(=O)c2ccccc2OC)cc1 (centres unmarked) [Compound 25] as the compound, how does the EC50 ([1]; human gammaherpesvirus 4, 48 h) read?
**A.** > 500 nM

**Q.** With COc1ccc(C2c3c(c4cc(Cl)ccc4n3C(=O)c3ccc(Cl)cc3)CCN2C(=O)c2ccc(F)cc2)cc1 (centres unmarked) [Compound 23] as the compound, how does the EC50 ([1]; human gammaherpesvirus 4, 48 h) read?
**A.** > 500 nM

**Q.** Which EC50 ([1]; human gammaherpesvirus 4, 48 h) does the source give for COc1ccc(C2c3[nH]c4ccc(Cl)cc4c3CCN2C(=O)c2ccccc2C(F)(F)F)cc1 (centres unmarked) [Compound 16] here?
**A.** > 500 nM

**Q.** With CCCCCCCCCCCCCC(=O)O[C@@H]1[C@@H](C)[C@@]2(O)[C@@H](C=C(CO)C[C@]3(O)C(=O)C(C)=C[C@@H]23)[C@@H]2C(C)(C)[C@]12OC(C)=O [TPA, 12-O-tetradecanoyl phorbol-13-acetate] as the compound, how does the “phosphorylation of p38 MAPK, S6, p90RSK and p53” value [9] read?
**A.** increase in phosphorylation

**Q.** Which EC50 ([1]; human gammaherpesvirus 4, 48 h) does the source give for COc1ccc(C2c3[nH]c4ccc(Cl)cc4c3CCN2C(=O)c2ccc(F)cc2)cc1 (centres unmarked) [Compound 18] here?
**A.** > 500 nM

**Q.** With COc1ccc(C2c3[nH]c4ccc(Cl)cc4c3CCN2C(=O)c2ccc(C(F)(F)F)cc2)cc1 (centres unmarked) [Compound 20] as the compound, how does the EC50 ([1]; human gammaherpesvirus 4, 48 h) read?
**A.** < 500 nM

**Q.** For COc1ccc(C2c3[nH]c4ccc(Cl)cc4c3CCN2C(=O)c2ccccc2OC)cc1 (centres unmarked) [Compound 17], which EC50 ([1]; human gammaherpesvirus 4, 48 h) is on record?
**A.** > 500 nM

**Q.** Which EC50 ([1]; human gammaherpesvirus 4, 48 h) does the source give for COC(=O)c1ccccc1NC(=O)N1CCc2c([nH]c3ccc(Cl)cc23)C1c1ccc(OC)cc1 (centres unmarked) [Compound 10] here?
**A.** < 500 nM

**Q.** And the EC50 [1, 10]?
**A.** 50 to 200 nM

**Q.** With COc1ccc(C2c3[nH]c4ccc(Cl)cc4c3CCN2C(=O)c2ccccc2F)cc1 (centres unmarked) [Compound 13] as the compound, how does the EC50 ([1]; human gammaherpesvirus 4, 48 h) read?
**A.** > 500 nM
